Source: paper PMC12073438, “Stereoselectivity of In Vivo Processes and Bioactivity of Farrerol Enantiomers” (Molecules, 2025)
“And” between values parts separate entries of the source, which are not always exact repeats. Equal entries are not always repeated. Where two headings read alike, the source gives them in different places.

Assays:
CYP2C9 = CYP2C9 (Homo sapiens, UniProt P11712); assay: CYP inhibition in liver microsomes (diclofenac); conditions: IC50, CYP 2C9, marker substrate diclofenac
Description: A liver microsome working solution (20 mg/mL) contained potassium phosphate buffer (0.1 M, pH 7.4), hepatic microsomes and marker substrate solution, which phenacetin, diclofenic acid, S-mephenytoinwer, dextromethorphan, midazolam, coumarin and chlorzoxazone used as substrates for […], CYP2C9, CYP2C19, CYP2D6, CYP3A4/5, CYP2A6 and CYP2E1, respectively. In brief, 238.5 µL of liver microsome working solution was placed in a 1 mL EP tube. […] The reaction was started by injecting NADPH (1 mM), and the resulting mixture was incubated at 37 °C for 10 min. […] Each incubation was conducted in triplicate (n = 3).
An API 4000 LC/tandem mass spectrometry was used to analyze the concentration of metabolites of various chemical agents using a validated mode. An Atlantis T3 column (2.1 mm × 50 mm, 5 μm) was utilized, employing mobile phases consisting of a 0.1% formic acid solution (A) and a 0.1% acetonitrile formate solution (B). […] ESI was conducted in positive ion mode.

CYP2C19 = CYP2C19 (Homo sapiens, UniProt P33261); assay: CYP inhibition in liver microsomes (S-mephenytoin); assay type: in vitro ADME; conditions: CYP 2C19, marker substrate S-mephenytoin
Description: (§1) A liver microsome working solution (20 mg/mL) contained potassium phosphate buffer (0.1 M, pH 7.4), hepatic microsomes and marker substrate solution, which phenacetin, diclofenic acid, S-mephenytoinwer, dextromethorphan, midazolam, coumarin and chlorzoxazone used as substrates for […], CYP2C9, CYP2C19, CYP2D6, CYP3A4/5, CYP2A6 and CYP2E1, respectively. In brief, 238.5 µL of liver microsome working solution was placed in a 1 mL EP tube. […] The reaction was started by injecting NADPH (1 mM), and the resulting mixture was incubated at 37 °C for 10 min. After centrifuging at 4000 rpm for 15 min, the supernatant was transferred and analyzed using LC-MS/MS to detect the corresponding metabolites. Each incubation was conducted in triplicate (n = 3).
(§2) An API 4000 LC/tandem mass spectrometry was used to analyze the concentration of metabolites of various chemical agents using a validated mode. An Atlantis T3 column (2.1 mm × 50 mm, 5 μm) was utilized, employing mobile phases consisting of a 0.1% formic acid solution (A) and a 0.1% acetonitrile formate solution (B). […] MRM was utilized to quantify each metabolite, detecting the following transitions: m/z 152.1/110 for acetaminophen, 312.1/230.0 for 4′-Hydroxydiclofenac, 235.0/150.0 for 4′-hydroxymephentoin, 258.2/199.1 for Dextrorphan, 342.1/203.0 for 1′-hydroxymidazolam, 161.1/133.1 for hydroxycoumarin, and 184.0/120.0 for 6-hydroxyclozoxadone.

CYP2D6 = CYP2D6 (Homo sapiens, UniProt P10635); assay: CYP inhibition in liver microsomes (dextromethorphan); assay type: in vitro ADME; conditions: CYP 2D6, marker substrate dextromethorphan
Description: as §1, §2

[1] = Stereoselective pharmacokinetics in rat liver tissue; assay type: in vivo, Sprague–Dawley rats; conditions: rat liver, oral 40 mg/kg farrerol racemate; for Cmax / AUC(0–t) / AUC(0–∞): 40 mg/kg
Description: Forty-two rats were divided randomly into seven groups (6 rats per time point at 0.5, 1, 2, 4, 8, 12, and 24 h) and were orally administered farrerol racemate at a dose of 40 mg/kg. Rats from each group were euthanized, and kidney and liver tissues were subsequently obtained. After washing three times using 0.9% sodium chloride solution, the attached blood and fat tissues were removed. Afterward, 0.5 g of the precisely weighed liver and kidney tissues were added to 1 mL 0.9% sodium chloride solution and homogenized in an ice bath. Subsequently, 150 µL of supernatant was transferred into a 2.0 mL EP tube for pre-treatment, in the same way as the pretreatment of plasma samples (see Section 3.4.1).
Stereoselective chromatographic analysis of farrerol enantiomers was conducted utilizing an ACQUITY UPLC I-Class UPLC system (Waters, Milford, MA, USA), which is equipped with a quaternary pump and an autosampler. The chiral separation was carried out employing a Chiralpak OJ-RH column (250 mm × 4.6 mm, 5 μm), which was obtained from Daicel Chemical Industries (Shanghai, China). The mobile phase consisted of ACN-H2O (60:40, v/v), and the constant flow rate was 0.5 mL/min. The column temperature was set at 25 °C, and the injection volume was 10 μL.
Mass detection was conducted using a triple quadrupole mass spectrometer (Waters Co., USA) equipped with an electrospray ionization (ESI) source. The detection of enantiomers and internal standards (IS) was carried out in multiple reaction monitoring (MRM) mode utilizing negative ionization. The m/z 299→179 for enantiomers and m/z 267→252 for IS were selected as detecting ions for quantitation. The collision energies (CE) were established at 22 eV and 20 eV, respectively. The primary mass spectrometry (MS) parameters were configured as follows: capillary voltage was set to 3.5 kV, ion source temperature was maintained at 150 °C, desolvation gas flow rate was 800 L/h, and the cone voltage (CV) was adjusted to 1.3 V.
Pharmacokinetic analysis was conducted utilizing the Drug and Statistics (DAS) 2.0 software provided by the Chinese Pharmacological Society. To assess the differences in pharmacokinetic parameters, the IC50 values of the evaluated CYP enzymes and the permeability coefficients between the two farrerol enantiomers, paired sample t-tests and independent sample t-tests were performed. Statistical significance was defined as * p < 0.05 and ** p < 0.01. All results are presented as mean values ± standard deviation (SD).

Sequence of CYP2C19 (P33261 whole entry): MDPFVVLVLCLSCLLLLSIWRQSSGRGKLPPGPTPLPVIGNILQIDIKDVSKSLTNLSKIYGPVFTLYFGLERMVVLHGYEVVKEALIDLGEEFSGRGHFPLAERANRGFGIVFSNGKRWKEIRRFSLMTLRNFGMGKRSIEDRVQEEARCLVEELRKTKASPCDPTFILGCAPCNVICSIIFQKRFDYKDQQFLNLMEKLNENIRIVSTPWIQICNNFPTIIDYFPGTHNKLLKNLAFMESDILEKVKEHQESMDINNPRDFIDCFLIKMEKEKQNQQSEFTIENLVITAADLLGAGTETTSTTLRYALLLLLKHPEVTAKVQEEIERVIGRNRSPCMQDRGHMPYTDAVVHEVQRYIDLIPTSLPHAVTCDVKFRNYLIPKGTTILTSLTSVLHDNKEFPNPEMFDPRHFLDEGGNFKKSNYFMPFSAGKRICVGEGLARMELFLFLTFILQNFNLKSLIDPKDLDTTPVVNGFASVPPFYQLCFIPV
Sequence of CYP2D6 (P10635 whole entry): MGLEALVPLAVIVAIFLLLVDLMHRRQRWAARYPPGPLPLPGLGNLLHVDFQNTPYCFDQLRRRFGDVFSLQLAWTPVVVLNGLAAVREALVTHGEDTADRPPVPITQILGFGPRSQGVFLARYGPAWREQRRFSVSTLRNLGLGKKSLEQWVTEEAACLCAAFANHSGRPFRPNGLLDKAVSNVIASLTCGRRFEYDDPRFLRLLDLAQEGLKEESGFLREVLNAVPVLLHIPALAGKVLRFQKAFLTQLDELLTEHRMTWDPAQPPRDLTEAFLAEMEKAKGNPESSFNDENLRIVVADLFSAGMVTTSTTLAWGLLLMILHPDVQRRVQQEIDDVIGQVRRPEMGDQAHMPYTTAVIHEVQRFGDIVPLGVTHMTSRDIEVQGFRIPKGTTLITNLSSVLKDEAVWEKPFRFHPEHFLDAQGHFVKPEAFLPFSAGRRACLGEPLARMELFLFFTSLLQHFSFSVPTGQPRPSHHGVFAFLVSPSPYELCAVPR
Sequence of CYP2C9 (P11712 whole entry): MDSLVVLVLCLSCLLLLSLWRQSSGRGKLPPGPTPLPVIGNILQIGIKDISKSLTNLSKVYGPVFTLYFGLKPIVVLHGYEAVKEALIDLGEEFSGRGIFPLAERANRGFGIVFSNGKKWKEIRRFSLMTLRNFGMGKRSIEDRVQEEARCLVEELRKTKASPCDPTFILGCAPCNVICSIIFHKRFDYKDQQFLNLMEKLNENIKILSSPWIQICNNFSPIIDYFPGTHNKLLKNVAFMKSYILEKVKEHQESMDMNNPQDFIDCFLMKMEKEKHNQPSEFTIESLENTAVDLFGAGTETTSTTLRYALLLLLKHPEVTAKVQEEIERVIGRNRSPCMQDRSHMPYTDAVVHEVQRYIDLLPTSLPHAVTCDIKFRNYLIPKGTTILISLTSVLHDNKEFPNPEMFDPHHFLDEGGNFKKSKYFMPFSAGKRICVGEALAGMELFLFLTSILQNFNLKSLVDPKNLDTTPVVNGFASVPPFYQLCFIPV

Cc1c(O)c(C)c2c(c1O)C(=O)CC(c1ccc(O)cc1)O2 (single isomer, unassigned; (+)) [(+)-farrerol, 2,3-dihydro-5,7-dihydroxy-2-(4-hydroxyphenyl)-6,8-dimethyl-4-benzopyrone]
IC50 (CYP2C9): 1970 nM
IC50 (CYP2C19): 1610 nM
IC50 (CYP2D6): > 50000 nM
Cmax ([1]; Sprague-Dawley, rat, liver, po, read-out: Cmax): 104000 ± 18000 ng/g
Tmax ([1]; Sprague-Dawley, read-out: Tmax): 2 h
AUC(0–t) [1]: 976.25 ± 41.60 µg·h/g
AUC(0–∞) [1]: 994.01 ± 40.84 µg·h/g

Cc1c(O)c(C)c2c(c1O)C(=O)CC(c1ccc(O)cc1)O2 (single isomer, unassigned; (-)) [(−)-farrerol, 2,3-dihydro-5,7-dihydroxy-2-(4-hydroxyphenyl)-6,8-dimethyl-4-benzopyrone]
IC50 (CYP2C9): 1570 nM
IC50 (CYP2C19): 2070 nM
IC50 (CYP2D6): > 50000 nM
AUC0–24 of (−)-farrerol relative to (+)-farrerol [1]: 1.23 times
Cmax of (−)-farrerol relative to (+)-farrerol [1]: 1.43 times
Tmax [1]: 2.00 h
AUC(0–t) [1]: 1200.9 µg/g*h and 1200.96 ± 58.92 * µg/g*h
AUC(0–∞) [1]: 1217.62 ± 65.03 * µg/g*h
Cmax [1]: 148.4 ± 2.61 * µg/g
